The text below walks through data of PMC12525657 (Molecules, 2025).

The target of this assay is NP (Influenza A virus, UniProt P15682). The assay can be described thus: biochemical. The assay is classed as binding.
Chain of NP (P15682 whole entry): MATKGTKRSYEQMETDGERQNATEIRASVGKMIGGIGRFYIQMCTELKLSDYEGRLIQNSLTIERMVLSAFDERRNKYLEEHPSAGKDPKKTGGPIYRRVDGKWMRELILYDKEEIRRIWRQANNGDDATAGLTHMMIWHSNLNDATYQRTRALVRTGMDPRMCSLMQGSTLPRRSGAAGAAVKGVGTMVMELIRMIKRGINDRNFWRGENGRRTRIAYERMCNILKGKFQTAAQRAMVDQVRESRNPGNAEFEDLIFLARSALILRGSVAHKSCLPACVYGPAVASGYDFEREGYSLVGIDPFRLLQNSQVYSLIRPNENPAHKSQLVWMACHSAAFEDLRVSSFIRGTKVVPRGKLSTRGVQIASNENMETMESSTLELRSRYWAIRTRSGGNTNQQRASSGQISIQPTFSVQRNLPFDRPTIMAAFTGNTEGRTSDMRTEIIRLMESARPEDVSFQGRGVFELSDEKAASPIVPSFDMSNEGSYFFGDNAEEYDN
As for `COc1ccc([C@@H]2C=C(c3ccc(Cl)cc3)Nc3nc(NC(=O)CCCC(=O)O)nn32)cc1` [Compound 12], the “binding affinity for NP relative to nucleozin” value is “higher binding affinity for NP than nucleozin”.

In turn, `Cc1onc(-c2ccccc2)c1C(=O)N1CCN(c2ccc([N+](=O)[O-])cc2Cl)CC1` [nucleozin, reference compound] registered a Kd of 9.73 µM.

For the compound `COc1ccc(C2CC(c3c(-c4ccccc4)c4cc(Cl)ccc4[nH]c3=O)=NN2C(=O)CCC(=O)O)cc1` (centres unmarked) [Compound 8], the affinity, expressed as Kd, was 78.5 µM and the “binding affinity for NP relative to nucleozin” value was “higher binding affinity for NP than nucleozin”.

`O=C(O)CCCC(=O)Nc1nc2n(n1)[C@H](c1ccccc1)C=C(c1ccc(Cl)cc1)N2` [Compound 14]: the affinity, expressed as Kd, was 69.7 µM and the “binding affinity for NP relative to nucleozin” value is on record as “higher binding affinity for NP than nucleozin”.

For `O=C(O)CCC(=O)Nc1nc2n(n1)C(c1ccc(Cl)cc1)C=C(c1ccc(Cl)cc1)N2` (centres unmarked) [Compound 13], binding was characterised by a dissociation constant (Kd) of 38.2 µM and the “binding affinity for NP relative to nucleozin” value is “higher binding affinity for NP than nucleozin”.

As for `Cc1ccc([C@@H]2C=C(c3ccc(Cl)cc3)Nc3nc(NC(=O)CCCC(=O)O)nn32)cc1` [Compound 4], the “binding affinity for NP relative to nucleozin” value is listed as “higher binding affinity for NP than nucleozin”.

In the case of `COc1ccc([C@H]2CC(c3c(-c4ccccc4)c4cc(Br)ccc4[nH]c3=O)=NN2C(=O)CCC(=O)O)cc1` [Compound 3], the dissociation constant Kd amounted to 210 µM and the “binding affinity for NP relative to nucleozin” value was “higher binding affinity for NP than nucleozin”.

Regarding `O=C(O)CCC(=O)N1N=C(c2c(-c3ccccc3)c3cc(Br)ccc3[nH]c2=O)C[C@@H]1c1ccc([N+](=O)[O-])cc1` [Compound 9], the “binding affinity for NP relative to nucleozin” value was “higher binding affinity for NP than nucleozin”.

Turning to `O=C(O)CCC(=O)N1N=C(c2c(O)nc3ccc(Br)cc3c2-c2ccccc2)CC1c1ccco1` (centres unmarked) [Compound 1], the dissociation constant (Kd) was found to be 150 µM and the “binding affinity for NP relative to nucleozin” value is “higher binding affinity for NP than nucleozin”.
